Measured values: paper PMC9221509, “Discovery of a Novel Antimicrobial Peptide, Temporin-PKE, from the Skin Secretion of Pelophylax kl. esculentus, and Evaluation of Its Structure-Activity Relationships” (Biomolecules, 2022)
Values after ≈ are worked out from the molar mass of the structure shown. Read-outs that look alike come from different tables or passages of the source. Non-standard residues stand in square brackets, D forms with d. Residues, ends and D or L forms follow the SMILES beside them. No end group written: not given here.

Columns and labels:
[1] = test system: MRSA (NCTC 12493) biofilm; assay type: cell-based, methicillin-resistant Staphylococcus aureus; details: NCTC 12493, 24 h
Description: The anti-biofilm activities of the peptides against S. aureus (ATCC 6538), MRSA (NCTC 12493), E. faecalis (NCTC 12697), E. coli (ATCC CRM 8739), K. pneumoniae (ATCC 43816), and P. aeruginosa (ATCC CRM 9027), were evaluated. For the MBIC assay, 99 µL of bacterial suspension (5 × 10^5 CFU/mL) was mixed with 1 µL of serial dilutions (from 100 µM to 51,200 µM) of temporin-PKE and its analogues in a 96-well plate, and the plate was incubated in a moist shaking incubator at a speed of 200 rpm at 37 °C for 24 h. For the MBEC assay, 100 µL of bacterial suspension (5 × 10^5 CFU/mL) in each well was seeded in a new 96-well plate, and the plate was put into the same shaking incubator for 24 h incubation to allow biofilm formation on the well. After biofilm formation, the biofilm in the plate was washed with PBS twice. The PBS was aspirated between washes to remove planktonic bacterial cells. The washed biofilm in each well was treated with 100 µL of serial dilutions (from 1 µM to 512 µM) of the test peptides. Then, the plate was incubated in the same shaking incubator for another 24 h. After being washed by PBS twice and fixed with methanol, the biofilm in each well was incubated with 100 µL of 0.1% crystal violet for 30 min, and the stained biofilm was dissolved in 100 µL of glacial acidic acid after drying. The solutions were transferred to a new microplate, and the absorbance of each well was measured using a microplate reader (EL808, Biolise BioTek, Winooski, VT, USA) set to 595 nm wavelength. The MBIC was the minimum concentration of the peptide showing no biofilm formation. The MBEC is the lowest concentration of the peptide capable of eradicating the mature biofilms, which had no biofilm in the well.

MRSA (NCTC 12493) [2] = assay type: cell-based, methicillin-resistant Staphylococcus aureus; details: NCTC 12493, 24 h
Description: (§1) The antimicrobial activities of peptides were evaluated against the Gram-positive bacteria, S. aureus (ATCC 6538), methicillin-resistant Staphylococcus aureus (MRSA) (NCTC 12493), Enterococcus faecalis (E. faecalis) (NCTC 12697); the Gram-negative bacteria, E. coli (ATCC CRM 8739), Klebsiella pneumoniae (K. pneumoniae) (ATCC 43816), Pseudomonas aeruginosa (P. aeruginosa) (ATCC CRM 9027); and the yeast, Candida albicans (C. albicans) (ATCC CRM 10231). Clinical isolates of MRSA (B042 V2E1 A), E. coli (ATCC BAA-2340), K. pneumoniae (ATCC BAA-1705), and P. aeruginosa (B004 V2S2 B) were also used to determine their antimicrobial activities. The suspension of microorganisms in the logarithmic growth phase with a specific final density (Gram-negative and Gram-positive bacteria: 5 × 10^5 CFU/mL; yeast: 1 × 10^6 CFU/mL) was incubated with different peptide concentrations from 1 µM to 512 µM at 37 °C for 24 h. PBS was used as the negative control, and norfloxacin and amphotericin B were selected as the positive control for bacteria and yeast, respectively. Since the Norfloxacin had weak activities against P. aeruginosa (B004 V2S2 B) and K. pneumoniae (ATCC BAA 1705), gentamicin was used as the positive control for these two bacterial strains. The absorbance of each well was obtained using a microplate reader (EL808, Biolise BioTek, Winooski, VT, USA) set at 550 nm wavelength. The MIC value was the lowest concentration of a peptide that inhibits visible bacterial growth. Once the MIC values were determined, an aliquot from the bacterial culture exposed to the peptide at or above its MIC value was inoculated on a Mueller Hinton agar (MHA) and was incubated at 37 for 18 h. The MBC value was the lowest concentration of a peptide that kills 99.9% of bacteria.
According to the procedures in a previous article, the analysis of the sensitivity of the peptides was determined by measuring MIC values in the presence of different types of salts and 10% fetal bovine serum. MRSA (NCTC 12493) and K. pneumoniae (ATCC 43816) were selected as the subjects of these assays. Various salts at different concentrations, including 150 mM NaCl, 4.5 mM KCl, 6 μM NH4Cl, 1 mM MgCl2, […], […], and 10% serum (Gibco, Auckland, New Zealand), were added to the MHB medium for the examination of the MIC values which were determined as described in Section 2.7.

MRSA (B042 V2E1 A) = experiment: microbe, parasite or virus in culture; assay type: cell-based, methicillin-resistant Staphylococcus aureus; details: B042 V2E1 A; for MBC: 18 h; for MIC: 24 h
Description: as §1

MRSA (NCTC 12493) [3] = experiment: microbe, parasite or virus in culture; assay type: cell-based, methicillin-resistant Staphylococcus aureus; details: for MBC: NCTC 12493, 18 h; for MIC: NCTC 12493, 24 h
Description: as §1

[4] = test system: K. pneumoniae (ATCC 43816); experiment: microbe, parasite or virus in culture; assay type: cell-based, Klebsiella pneumoniae; details: for MBC: ATCC 43816, 18 h; for MIC: ATCC 43816, 24 h
Description: as §1

HaCaT cells = assay type: cell-based, human; details: 24 h
Description: The cytotoxicity of the peptides against the human epidermal keratinocyte line, HaCaT, was tested using the MTT cell viability assay as described in a previous study. The 100 µL of the cell suspension in a complete DMEM medium with a density of 10,000 cells/mL was seeded in a 96-well plate and incubated overnight at 37 °C in a humidified 5% CO2 atmosphere. After 4 h of starvation in a serum-free medium, 100 μL of serial dilutions (from 10^−9 M to 10^−4 M) of temporin-PKE and its analogues was added to each well, and the plate was incubated for 24 h. The serum-free medium and 0.1% Triton X-100 were used as the negative and positive control, respectively. Then, MTT solution, at a volume of 10 μL, was added to each well, and the plate was incubated for 2 h. After this, the medium was replaced by 100 μL of DMSO, and plates were put in the shaking incubator for 15 min. The absorbance of each well was measured using a microplate reader (EL808, Biolise BioTek, Winooski, VT, USA) set to a wavelength of 570 nm. The equation used to calculate the viability of the cells is shown below: Cell viability (%)=A−Ab/An−Ab×100% where A represents the absorbance of each treatment group, Ab represents the average absorbance of the wells in the blank control group (cells not exposed to the test peptide and MTT), and An represents the average absorbance of the wells in the negative control group (cells not exposed to the test peptide).

Row | Compound | MBIC [1] [µM] | MIC against MRSA in the presence of 4 µM FeCl3 (MRSA (NCTC 12493) [2]) [µM] | MIC against MRSA in the presence of 6 µM NH4Cl (MRSA (NCTC 12493) [2]) [µM] | MIC against MRSA in the presence of 8 µM ZnCl2 (MRSA (NCTC 12493) [2]) [µM] | MIC against MRSA in the presence of 1 mM MgCl2 (MRSA (NCTC 12493) [2]) [µM] | MIC against MRSA in the presence of 2 mM CaCl2 (MRSA (NCTC 12493) [2]) [µM] | MIC against MRSA in the presence of 4.5 mM KCl (MRSA (NCTC 12493) [2]) [µM] | MIC against MRSA in the presence of 150 mM NaCl (MRSA (NCTC 12493) [2]) [µM] | MIC against MRSA in the presence of 10% FBS (MRSA (NCTC 12493) [2]) [µM] | MIC against MRSA, Negative (MRSA (NCTC 12493) [2]) [µM] | MBC (MRSA (B042 V2E1 A)) [µM] | MIC (MRSA (B042 V2E1 A)) [µM] | MBC (MRSA (NCTC 12493) [3]) | MIC (MRSA (NCTC 12493) [3]) [µM] | IC50 (HaCaT cells) [µM] | MBC ([4]; read-out: MBC) [µM] | MIC ([4]; read-out: MIC) [µM] | further results
1 | FLPKIIGKLSSKLPKIF-NH2 [Temporin-PKE-4K] | 32 | 32 | 32 | 128 | 32 | 64 | 32 | 128 | 128 | 32 | 16 | 16 | 32 µM | 32 | 251 | – | – | MBC [4]: 16 µM; MIC [4]: 16 µM
2 | FLPLIIGALSSLLPKIF-NH2 [Temporin-PKE] | 4 | 8 | 8 | 32 | 8 | 8 | 8 | 8 | 16 | 2 | – | – | 2/2 μM | – | 5.04 | >512 | >512 | MBC (MRSA (B042 V2E1 A); read-out: MBC): 8 µM; MIC (MRSA (B042 V2E1 A); read-out: MIC): 4 µM; MIC (MRSA (NCTC 12493) [3]; read-out: MIC): 2 µM
3 | FLPKIIGKLSSLLPKIF-NH2 [Temporin-PKE-3K] | 2 | 2 | 4 | 16 | 4 | 4 | 4 | 8 | 4 | 2 | 2 | 2 | 2/2 μM | – | 29.6 | – | 4 | MIC (MRSA (NCTC 12493) [3]; read-out: MIC): 2 µM; MBC [4]: 4/4 μM
4 | CC[C@@H](C)[C@@H](NC(=O)[C@H](CCCCN)NC(=O)[C@@H]1CCCN1C(=O)[C@H](CC(C)C)NC(=O)[C@H](CC(C)C)NC(=O)[C@H](CO)NC(=O)[C@H](CO)NC(=O)[C@H](CC(C)C)NC(=O)[C@H](C)NC(=O)CNC(=O)[C@@H](NC(=O)[C@@H](NC(=O)[C@H](CC(C)C)NC(=O)[C@@H]1CCCN1C(=O)[C@H](CC(C)C)NC(=O)[C@@H](N)Cc1ccccc1)[C@@H](C)CC)[C@@H](C)CC)C(=O)N[C@@H](Cc1ccccc1)C(N)=O [Temporin-PKE-i] (H-FLPLIIGALSSLLPK[dI]F-NH2) | 2 | 2 | – | 16 | – | 4 | – | 4 | 8 | – | 4 (≈ 7.37 µg/mL) | 4 (≈ 7.37 µg/mL) | 4 µM (≈ 7.37 µg/mL) | 4 (≈ 7.37 µg/mL) | 11.9 | >512 | >512 | –
5 | FLPLIIGKLSSLLPKIF-NH2 [Temporin-PKE-2K] | 2 | 2 | 4 | 16 | 4 | 4 | 4 | 8 | 8 | 2 | 2 | 2 | 2 µM | 2 | 9.04 | 32 | 16 | –
6 | FLPLIIGALSSKLPKIF-NH2 [Temporin-PKE-K12] | 4 | 8 | 8 | 32 | 16 | 16 | 32 | 32 | 32 | 4 | 4 | 4 | 4 µM | 4 | 19 | 64 | 32 | –
7 | CC[C@@H](C)[C@@H](NC(=O)[C@H](CCCCN)NC(=O)[C@@H]1CCCN1C(=O)[C@H](CC(C)C)NC(=O)[C@H](CC(C)C)NC(=O)[C@H](CO)NC(=O)[C@H](CO)NC(=O)[C@H](CC(C)C)NC(=O)[C@H](C)NC(=O)CNC(=O)[C@H](NC(=O)[C@H](NC(=O)[C@H](CC(C)C)NC(=O)[C@@H]1CCCN1C(=O)[C@H](CC(C)C)NC(=O)[C@@H](N)Cc1ccccc1)[C@H](C)CC)[C@H](C)CC)C(=O)N[C@@H](Cc1ccccc1)C(N)=O [Temporin-PKE-3i] (H-FLPL[dI][dI]GALSSLLPK[dI]F-NH2) | 64 | 128 | 256 | 512 | 256 | 256 | 512 | 512 | 512 | 64 (≈ 118 µg/mL) | 64 (≈ 118 µg/mL) | 64 (≈ 118 µg/mL) | 64 µM (≈ 118 µg/mL) | 64 (≈ 118 µg/mL) | 497 | >512 | >512 | –
